Three molecules from ChEMBL document CHEMBL4425155, “Synthesis and anti-HBV activity of α-stereoisomer of aristeromycin based analogs” (Bioorg Med Chem Lett, 2016) can be followed below.

What is called pEC50 is the negative decadic logarithm of the EC50, by convention in mol/L. A word on the CC50: it is the concentration giving 50% cytotoxicity.

The test system of one series is Hepatitis B virus. Kind of series: Antiviral activity against HBV infected in human HepG2.2.15.7 cells assessed as inhibition of viral DNA level after 9 days by real time PCR method. The series is classed as functional, organism-based. As to conditions: HepG2.2.15.7, 216 h. (In general: Real-time PCR tracks product formation cycle by cycle.)
Series [1] is described as follows: Cytotoxicity against human HepG2.2.15.7 cells assessed as reduction in cell viability after 9 days by tetrazolium dye based method.

pEC50: −log10 of the molar value.

Turning to `Nc1ccn([C@@H]2CS[C@H](CO)O2)c(=O)n1` [LAMIVUDINE], in the series on Hepatitis B virus, the pEC50 was 7.52. In series [1], the CC50 at 216 h was more than 10 µM.
`Cc1ncnc2c1c(Br)cn2[C@@H]1C[C@@H](CO)[C@@H](O)[C@H]1O`: the pEC50 in the series with Hepatitis B virus is 5.18. Moreover, the CC50 at 216 h in series [1] was more than 100 µM.
For `Cc1nc(N)c2c(Br)nn([C@@H]3C[C@@H](CO)[C@@H](O)[C@H]3O)c2n1` the same measures were less than 4.00 and more than 100 µM.
